According to patent EP2857388A1, “Azoles containing sulfone” (Grünenthal GmbH, priority 2013, dated 2015):

What follows are compounds tested against T1, human B1R (Homo sapiens, UniProt P46663) (assay: Functional assay at bradykinin receptor 1 (B1R): Ca2+ fluorescence (Fluo-4) in FLIPR/Novostar, antagonist mode). Settings: test substance 10 µM; CHO K1 cells stably transfected with human B1R gene (hB1R-Zellen); agonist Lys-Des-Arg9-Bradykinin at EC80; % inhibition relative to maximal achievable inhibition; read-out: % Inhibierung (human B1R) bei 10 µM.
T1 construct: expressed in transfected cells; host or cells: CHO K1 cells (Chinese Hamster Ovary), stably transfected
T1 sequence (P46663 1-353): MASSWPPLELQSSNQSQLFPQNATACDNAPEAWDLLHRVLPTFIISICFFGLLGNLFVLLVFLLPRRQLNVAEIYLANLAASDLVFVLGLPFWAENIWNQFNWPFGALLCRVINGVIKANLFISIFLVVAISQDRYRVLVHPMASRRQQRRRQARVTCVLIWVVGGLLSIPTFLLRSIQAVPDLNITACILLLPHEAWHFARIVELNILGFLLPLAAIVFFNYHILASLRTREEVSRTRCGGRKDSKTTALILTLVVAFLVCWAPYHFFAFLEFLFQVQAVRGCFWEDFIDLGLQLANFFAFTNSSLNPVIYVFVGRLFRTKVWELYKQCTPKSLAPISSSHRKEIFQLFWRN
Assay type: cell-based
Summary of the method: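 Antagonism read as suppression of the Ca2+ rise in Fluo-4-loaded, hB1R-transfected CHO K1 cells when Lys-Des-Arg9-bradykinin (EC80) follows a 6–20 min compound preincubation. Maximal fluorescence counts, measured on FLIPR or Novostar, yield % inhibition relative to maximum; IC50 values come from concentration series run in duplicate or triplicate.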

inhibition at 10 µM	SMILES
99%	Cc1cccc(Cl)c1S(=O)(=O)Cc1noc(C(=O)N2CCN(c3ccncc3)CC2)n1 [CC-137, [3-[[(2-Chlor-6-methyl-phenyl)sulfonyl]-methyl]-[1,2,4]oxadiazol-5-yl]-(4-pyridin-4-yl-piperazin-1-yl)-methanon]
100%	COc1cc(C)c(S(=O)(=O)Cc2noc(C(=O)N3CCC4(CCN(c5ccncc5)CC4)C3)n2)c(C)c1 [SC-04, [3-[[(4-Methoxy-2,6-dimethyl-phenyl)sulfonyl]-methyl]-[1,2,4]oxadiazol-5-yl]-(8-pyridin-4-yl-3,8-diazaspiro[4.5]decan-3-yl)-methanon]
100%	COc1cc(C)c(S(=O)(=O)Cc2nc(CC(=O)NC3CCC(N(C)C)CC3)no2)c(C)c1 (stereo not drawn) [CC-28, N-(4-Dimethylamino-cyclohexyl)-2-[5-[[(4-methoxy-2,6-dimethyl-phenyl)sulfonyl]-methyl]-[1,2,4]oxadiazol-3-yl]-acetamid]
100%	COc1cc(C)c(S(=O)(=O)Cc2noc(CC(=O)NC3CCC(O)CC3(C)C)n2)c(C)c1 (stereo not drawn) [SC-35, N-(4-Hydroxy-2,2-dimethyl-cyclohexyl)-2-[3-[[(4-methoxy-2,6-dimethyl-phenyl)sulfonyl]-methyl]-[1,2,4]oxadiazol-5-yl]-acetamid]
99%	COc1cc(C)c(S(=O)(=O)Cc2noc(CC(=O)N3CCC4(CCN(C)C4)C3)n2)c(C)c1 (stereo not drawn) [CC-130, 2-[3-[[(4-Methoxy-2,6-dimethyl-phenyl)sulfonyl]-methyl]-[1,2,4]oxadiazol-5-yl]-1-(2-methyl-2,8-diazaspiro[4.4]nonan-8-yl)-ethanon]
100%	COCCN1CCC(NC(=O)Cc2noc(CS(=O)(=O)c3c(C)cc(OC)cc3C)n2)C(C)(C)C1 (stereo not drawn) [CC-27, 2-[5-[[(4-Methoxy-2,6-dimethyl-phenyl)sulfonyl]-methyl]-[1,2,4]oxadiazol-3-yl]-N-[1-(2-methoxy-ethyl)-3,3-dimethyl-piperidin-4-yl]-acetamid]
99%	COc1cc(C)c(S(=O)(=O)Cc2nc(CC(=O)NC3CCC(c4ccncc4)CC3(C)C)no2)c(C)c1 (stereo not drawn) [CC-37, N-(2,2-Dimethyl-4-pyridin-4-yl-cyclohexyl)-2-[5-[[(4-methoxy-2,6-dimethyl-phenyl)sulfonyl]-methyl]-[1,2,4]oxadiazol-3-yl]-acetamid]
100%	COc1cc(C)c(S(=O)(=O)Cc2nc(CC(=O)NC3CCNCC3)no2)c(C)c1 [CC-42, 2-[5-[[(4-Methoxy-2,6-dimethyl-phenyl)sulfonyl]-methyl]-[1,2,4]oxadiazol-3-yl]-N-piperidin-4-yl-acetamid]
81%	COc1cc(C)c(S(=O)(=O)Cc2nnc(CC(=O)NC3CCN(C(C)=O)CC3(C)C)o2)c(C)c1 (stereo not drawn) [CC-69, N-(1-Acetyl-3,3-dimethyl-piperidin-4-yl)-2-[5-[[(4-methoxy-2,6-dimethyl-phenyl)sulfonyl]-methyl]-[1,3,4]oxadiazol-2-yl]-acetamid]
99%	Cc1cc(S(=O)(=O)Cc2noc(C(=O)N3CCC4(CCN(C)C4)C3)n2)c(C)cc1Cl (stereo not drawn) [CC-142, [3-[[(4-Chlor-2,5-dimethyl-phenyl)sulfonyl]-methyl]-[1,2,4]oxadiazol-5-yl]-(2-methyl-2,8-diaza-spiro[4.4]nonan-8-yl)-methanon]
100%	Cc1cc(S(=O)(=O)Cc2noc(C(=O)N3CCN(c4ccncc4)CC3)n2)c(C)cc1Cl [CC-144, [3-[[(4-Chlor-2,5-dimethyl-phenyl)sulfonyl]-methyl]-[1,2,4]oxadiazol-5-yl]-(4-pyridin-4-yl-piperazin-1-yl)-methanon]

SMILES	inhibition at 10 µM
Cc1cc(S(=O)(=O)Cc2noc(CC(=O)NC3CCC(c4ccncc4)CC3(C)C)n2)c(C)cc1Cl (stereo not drawn) [CC-80, 2-[3-[[(4-Chlor-2,5-dimethyl-phenyl)sulfonyl]-methyl]-[1,2,4]oxadiazol-5-yl]-N-(2,2-dimethyl-4-pyridin-4-yl-cyclohexyl)-acetamid]	99%
